A word on the EC50: it is the midpoint of the concentration-response curve. As a reminder, the CC50 is the concentration that lowers cell viability or growth by half.

Where two headings read alike, the source gives them in different places.

Consider 5 compounds from US20090318456A1, “SUBSTITUTED PTERIDINES FOR THE TREATMENT AND PREVENTION OF VIRAL INFECTIONS” (Gilead Sciences, Inc., priority 2006, published 2009).

One data set relates to HIV IIIb strain. As to the kind of experiment: Anti-HIV assay in MT-4 cells. The class given is cell-based. Conditions: MT-4 cells infected with HIV IIIb, 5 days, CellTiter-Glo. As to the method:
The anti HIV activity of some of the pteridine compounds listed in example C was tested in MT-4 cells infected with HIV IIIb strain. The assay comprised the following steps: • Step 1 (sample preparation). The compound stock solutions as prepared for Example C were diluted in MT4 cell media at a concentration equal to twice the concentration of the HCV EC50 or CC50 (the highest concentration of the two was chosen) obtained in Example C. To pre-defined wells of a 384-well black cell culture plate (NUNC), a volume of 50 μL of the compound solution is added. Serial dilution is performed by the workstation across the plate. Each compound is serially diluted 5-fold in each step, for a total of 6 steps (7 total concentrations). Compounds are tested in triplicates within each plate. Negative control was performed using 40 μL cell media only. At the end of the serial dilution, each well on the plate contained 40 μL of media containing different concentrations of compounds. A volume of 20 μL was transferred to a new plate to duplicate the plate. • step 2 (starting the assay): the plates are transferred into the HIV laboratory. To each plate, a volume of 20 μL MT-4 cell suspension (10^5 cells/mL) is dispensed into each well of the plate with the Multidrop dispenser. The HIV IIIb stock solution was diluted 1 to 500 in cell media (2 μL of virus+998 μL of media). 100-120 μL of diluted virus was then added to 10 ml cell suspension (containing 106 MT-4 cells). 20 μL of this cell suspension/virus was dispensed to each well of the plates with the Multidrop dispenser. The plates were incubated at 37° C. for 5 days in the cell culture incubator in the HIV laboratory. • step 3 (detection): on day 5, 40 μL of the pre-prepared CellTiter-Glo reagent was added to each well of the plates using the Multidrop dispenser. The plates were incubated at room temperature for 10 minutes to stabilize the luminescence signal. The luminescence was measured on the Victor 2 plate reader with an integration time of 0.25-1 seconds per sample. […] It is clear from the table that none of the pteridine compounds tested is active against HIV.
Background: In ATP-based viability assays light output follows the ATP content of the culture.

For the next data set, the system named is Huh-7 HCV replicon cells. As to the kind of experiment: CC50 assay (CellTiter-Glo) in Huh-7 HCV replicon cells. The class given is cell-based, human. Here is the method: (§1) The anti HCV activity of specifically 2,4,6-trisubstituted pteridine derivatives was tested in a human hepatoma Huh-7 cell line harbouring a HCV replicon. The assay comprised the following steps:
(§2) Step 1: compound preparation and serial dilution involved the following alternatives, depending upon the water solubility of pteridine derivative being tested: • 1. with respect to water soluble 2,4,6-trisubstituted pteridine derivatives, 500 μL of solution in cell media (DMEM, 10% FBS, P/S, L-Glutamine) was prepared with a concentration that is twice the concentration of the starting final serial dilution concentration. 150 μL of the solution was added to the pre-specified wells in column 1 of a 96-well cell culture plate (PerkinElmer, white plate, cat. #6005181, for EC50 assay; black plate, cat. #6005182 for CC50 assay). The rest of the plate, i.e. columns 2-12, was filled with 100 μL of cell media. The plate was then placed on a Precision 2000 Workstation in order to start serial dilution. Pteridine compounds were diluted three times each step from column 1 to column 10. Column 11 was used as a blank control (no pteridine compound added). • 2. With respect to poorly water soluble pteridine derivatives, DMSO was used as a solvent, and serial dilution was performed in 50% DMSO in water, in a 384-well plate. A solution containing the relevant compound at 100-fold the concentration of the starting final serial dilution concentration was prepared in 50% DMSO in water and added to the pre-specified wells in column 1 of a polypropylene 384-well plate. This plate was then placed on a Precision 2000 Workstation in order to start serial dilution. After serial dilution, 2 μL of the solution was transferred from the 384-well plate to a 96-well cell culture plate containing 100 μL of cell media on a Biomek FX Workstation. The DMSO concentration in the final assay condition was 0.5% after cells have been added to the plate and the total volume in each well was brought to 200 μL. Step 2: to each well of the serial dilution plate prepared in step 1, 100 μL of cell media containing 6000 suspended Huh-7 HCV replicon cells was added with a Multidrop workstation. Plates were incubated for 3 days at 37° C. with 5% CO2. Step 3: detection: • 1) with respect to the EC50 assay, the media in a 96-well cell culture plate was aspirated with a Biotek EL405 plate-washer. A volume of 200 μL of a solution containing a 1:1 mixture of a cell-lysis buffer (commercially available from Promega, Luciferase Cell Culture Lysis 5× Reagent, cat. #E1531) and a luciferase substrate solution (commercially available from Promega, Luciferase Assay, cat. # E4550) was added to each well of the plate with Multidrop. The plate was incubated for 30 minutes at room temperature before the luminescence signal was measured with a TopCount plate-reader. • 2) with respect to the CC50 assay, 100 μL of a pre-mixed CellTiter-Glo (commercially available from Promega, cat. # G7572) solution was added directly to the cell culture in each well of the plate and the luminescence signal was measured with a TopCount plate-reader after 10 minutes of incubation at room temperature.
(§3) Results are expressed by the following data: • the 50% effective concentration (EC50), i.e. the concentration that protects 50% of the cell monolayer from virus-induced cythopathic effect, and • the 50% cytostatic concentration (CC50), i.e. the concentration that results in 50% inhibition of cell growth.

The next data set deals with HCV replicon. Put plainly: Anti-HCV replicon assay (EC50, luciferase). The class given is cell-based, Hepatitis C virus (HCV). Conditions: Huh-7 HCV replicon cells, 3 days, luciferase, read-out: EC50. Here is the method:
as §1, §2, §3
In general terms: A replicon is a self-replicating genome or part of one, used to study replication in cells.

Consider `CCOc1nc(N)nc2ncc(-c3ccc(OC)c(OC)c3)nc12` [Example 134], for which the EC50 with HIV IIIb strain was over 100 µM; at HCV replicon (Table 2), under 0.3 µM. The same compound registered a CC50 in the data set with Huh-7 HCV replicon cells (Table 2, 3 days) of over 20 µM.

On to `COc1ccc(-c2cnc3nc(N)nc(N4CCOCC4)c3n2)cc1OC` [Example 158], for which the values for the 50% effective concentration (EC50) in the data set on HIV IIIb strain and at HCV replicon (Table 2) were over 100 µM and under 0.3 µM, respectively. The compound further registered a CC50 with Huh-7 HCV replicon cells (Table 2, 3 days) of 10 to 20 µM.

Take `COc1ccc(-c2cnc3nc(N)nc(N4CCN(C)CC4)c3n2)cc1OC` [Example 181]: the figures for the EC50 in the data set on HIV IIIb strain and at HCV replicon (Table 2) were over 100 µM and under 0.3 µM, respectively. This compound yielded a CC50 in the data set with Huh-7 HCV replicon cells (Table 2, 3 days) of 10 to 20 µM.

Consider `CCS(=O)(=O)Nc1cccc(-c2cnc3nc(N)nc(N4CCOCC4)c3n2)c1` [Example 201], for which the EC50 was 17.8 µM with HIV IIIb strain and 0.3 to 1 µM on HCV replicon (Table 3). Further, the CC50 with Huh-7 HCV replicon cells (Table 3, 3 days) is over 20 µM.

`CCC(=O)Nc1ccc(-c2cnc3nc(N)nc(N4CCOCC4)c3n2)cc1` [Example 216]: the EC50 is over 100 µM with HIV IIIb strain and 0.3 to 1 µM on HCV replicon (Table 3). The same compound gave a half-maximal cytotoxic concentration (CC50) in the data set on Huh-7 HCV replicon cells (Table 3, 3 days) of over 20 µM.
